Experimental data taken from PubChem BioAssay (NCI).
Several values for one entry are separate records, joined by “and”; a condition that tells them apart may be missing. Equal entries are not always repeated.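 Results reflect a 48-hour exposure of cells in 96-well plates to compound at five concentrations. Here, GI50 denotes the concentration required for 50% inhibition of growth. TGI: total growth inhibition.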

What was measured:
Assay in all cases: NCI anticancer screen, dose series, 48 h; in the data active = GI50 below about 0.43 µM; inactive = the rest
[1] = system: CAKI-1 renal
[2] = system: EKVX NSCLC
[3] = system: NCI-H460 lung
[4] = system: SW-620 colon
[5] = system: NCI-H522 lung
[6] = system: HCC-2998 colon
[7] = system: NCI-H23 lung
[8] = system: DLD-1 colon
[9] = system: SF-295 CNS
[10] = system: MALME-3M melanoma
[11] = system: SR leukemia
[12] = system: HCT-15 colon
[13] = system: A498 renal
[14] = system: SK-OV-3 ovarian
[15] = system: ACHN renal
[16] = system: DMS 114 small cell lung
[17] = system: SF-539 CNS
[18] = system: KM12 colon
[19] = system: IGROV1 ovarian
[20] = system: K-562 leukemia
[21] = system: U251 CNS
[22] = system: A549 NSCLC
[23] = system: COLO 205 colon
[24] = system: HOP-92 NSCLC
[25] = system: SNB-75 CNS
[26] = system: SK-MEL-5 melanoma
[27] = system: UACC-62 melanoma
[28] = system: M19-MEL melanoma
[29] = system: OVCAR-8 ovarian
[30] = system: SK-MEL-28 melanoma
[31] = system: TK-10 renal
[32] = system: M14 melanoma
[33] = system: DMS 273 small cell lung
[34] = system: SNB-19 CNS
[35] = system: OVCAR-3 ovarian
[36] = system: KM20L2 colon
[37] = system: CCRF-CEM leukemia
[38] = system: UACC-257 melanoma
[39] = system: HOP-62 NSCLC
[40] = system: RPMI-8226 leukemia
[41] = system: HL-60(TB) leukemia
[42] = system: LXFL 529 NSCLC
[43] = system: OVCAR-4 ovarian
[44] = system: SF-268 CNS
[45] = system: XF 498 CNS
[46] = system: MOLT-4 leukemia
[47] = system: SK-MEL-2 melanoma
[48] = system: SN12C renal
[49] = system: HT29 colon
[50] = system: UO-31 renal
[51] = system: OVCAR-5 ovarian
[52] = system: HCT-116 colon
[53] = system: SNB-78 CNS
[54] = system: LOX IMVI melanoma
[55] = system: 786-0 renal
[56] = system: RXF 393 renal
[57] = system: NCI-H226 lung

CC(C)OP(=O)(OC(C)C)/C(F)=N/Nc1ccc([N+](=O)[O-])cc1
> 100 µM: TGI [1] | TGI [2] | TGI [3] | TGI [4] | TGI [5] | TGI [6] | TGI [7] | TGI [8] | TGI [9] | TGI [10] | TGI [11] | TGI [12] | TGI [13] | TGI [14] | TGI [15] | TGI [16] | TGI [17] | TGI [18] | TGI [19] | TGI [20] | TGI [21] | TGI [22] | TGI [23] | TGI [24] | TGI [25] | TGI [26] | TGI [27] | TGI [28] | TGI [29] | TGI [30] | TGI [31] | TGI [32] | TGI [33] | TGI [34] | TGI [35] | TGI [36] | TGI [37] | TGI [38] | TGI [39] | TGI [40] | TGI [41] | TGI [42] | TGI [43] | TGI [44] | TGI [45] | TGI [46] | TGI [47] | TGI [48] | TGI [49] | TGI [50] | TGI [51] | TGI [52]

NCCSSC/C=C\CSSCCN
77.3 µM and 41.2 µM: TGI [43]
> 55.8 µM and 78 µM: TGI [10]
> 100 µM and 38 µM: TGI [48]
> 100 µM and 69.5 µM: TGI [45]
> 69.5 µM and 34.6 µM: TGI [29]
> 100 µM and 34 µM: TGI [23]
70.5 µM and 36.5 µM: TGI [17]
> 100 µM and 67.1 µM: TGI [35]
> 100 µM and 41.6 µM: TGI [27]
25.4 µM and 40.5 µM: TGI [20]
> 100 µM and 58.9 µM: TGI [49]
> 100 µM and 42.5 µM: TGI [32]
inactive: GI50 [3] 98.4 µM and 22.2 µM | GI50 [8] 33.8 µM and 15.6 µM | GI50 [9] > 90.3 µM and 27.6 µM | GI50 [10] > 40.4 µM and 17.8 µM | GI50 [18] 65 µM and 23.4 µM | GI50 [54] 26.2 µM and 13 µM | GI50 [20] 6.31 µM and 15.7 µM | GI50 [55] 56.4 µM and 27.1 µM | GI50 [23] 42.7 µM and 18.4 µM | GI50 [26] > 85.7 µM and 26.9 µM | GI50 [27] 41.2 µM and 20.2 µM | GI50 [30] 56 µM and 24.7 µM | GI50 [35] > 68.6 µM and 25.1 µM | GI50 [36] 76.3 µM and 21.6 µM | GI50 [38] 76.8 µM and 29 µM | GI50 [44] > 64.9 µM and 29.5 µM | GI50 [45] 79.7 µM and 21.6 µM | GI50 [48] 43.5 µM and 19 µM
> 100 µM and 77.9 µM: TGI [26]
> 100 µM and 67.4 µM: TGI [21]
> 100 µM and 77.8 µM: TGI [30]
31.4 µM and 29.1 µM: TGI [5]
68.6 µM: TGI [37]
> 67.2 µM and 44.6 µM: TGI [42]
> 100 µM and 80.8 µM: TGI [9]
> 100 µM and 82 µM: TGI [55]
> 59.9 µM and 27.9 µM: TGI [54]
65.2 µM and 53.9 µM: TGI [46]
> 100 µM and 45 µM: TGI [36]
29.6 µM and 45.7 µM: TGI [41]
99.5 µM and 58.8 µM: TGI [40]
> 95.1 µM and 44 µM: TGI [16]
> 100 µM and 60.8 µM: TGI [33]
> 100 µM and 95.2 µM: TGI [28]
> 100 µM and 62 µM: TGI [18]
> 100 µM: TGI [1] | TGI [53] | TGI [7] | TGI [12] | TGI [56] | TGI [24] | TGI [25] | TGI [38] | TGI [44] | TGI [52]
> 100 µM and 51.9 µM: TGI [3]
> 100 µM and 34.9 µM: TGI [8]
> 64.8 µM and 28.3 µM: TGI [4]

O=C([CH-]C(=O)C(F)(F)F)c1ccccc1.O=C([CH-]C(=O)C(F)(F)F)c1ccccc1.[O]=[U+2]=[O]
87.9 µM: TGI [27]
93.6 µM: TGI [29]
95.6 µM: TGI [24]
inactive: GI50 [1] 39 µM | GI50 [2] 22.3 µM | GI50 [3] 12.6 µM | GI50 [4] 27.9 µM | GI50 [5] 4.11 µM | GI50 [6] 14.4 µM | GI50 [7] 4.71 µM | GI50 [8] 7.75 µM | GI50 [9] 20.8 µM | GI50 [10] 18.6 µM | GI50 [12] 7.27 µM | GI50 [13] 24.6 µM | GI50 [14] 51.4 µM | GI50 [15] 13.6 µM | GI50 [17] 4.13 µM | GI50 [18] 26 µM | GI50 [19] 16.5 µM | GI50 [54] 13 µM | GI50 [20] 13.1 µM | GI50 [21] 5.61 µM | GI50 [55] 21.7 µM | GI50 [22] 27.4 µM | GI50 [56] 16.9 µM | GI50 [23] 34.5 µM | GI50 [24] 30.9 µM | GI50 [25] 28.8 µM | GI50 [26] 17.8 µM | GI50 [27] 12.2 µM | GI50 [28] 16.6 µM | GI50 [29] 14.1 µM | GI50 [30] 9.2 µM | GI50 [31] 20.4 µM | GI50 [32] 19.1 µM | GI50 [33] 7.38 µM | GI50 [34] 4.62 µM | GI50 [35] 18 µM | GI50 [36] 19.9 µM | GI50 [37] 11.4 µM | GI50 [38] 27.3 µM | GI50 [39] 15.1 µM | GI50 [40] 8.51 µM | GI50 [41] 15.8 µM | GI50 [42] 7.33 µM | GI50 [43] 10.4 µM | GI50 [44] 4.53 µM | GI50 [45] 23.8 µM | GI50 [46] 19.4 µM | GI50 [47] 28 µM | GI50 [48] 9.1 µM | GI50 [49] 28.3 µM | GI50 [50] 5.4 µM | GI50 [51] 64.1 µM
86.5 µM: TGI [9]
85.8 µM: TGI [25]
69.9 µM: TGI [45]
53.9 µM: TGI [39]
90.6 µM: TGI [3]
61.7 µM: TGI [6]
78.4 µM: TGI [41]
89.4 µM: TGI [55]
> 100 µM: TGI [1] | TGI [4] | TGI [5] | TGI [8] | TGI [12] | TGI [14] | TGI [17] | TGI [19] | TGI [54] | TGI [20] | TGI [21] | TGI [22] | TGI [23] | TGI [26] | TGI [28] | TGI [33] | TGI [34] | TGI [36] | TGI [37] | TGI [38] | TGI [40] | TGI [42] | TGI [43] | TGI [44] | TGI [46] | TGI [47] | TGI [48] | TGI [50] | TGI [51]
79.5 µM: TGI [30]
45.4 µM: TGI [56]
92.6 µM: TGI [18]
88.9 µM: TGI [32]
80.9 µM: TGI [15]
64.1 µM: TGI [31]
68.2 µM: TGI [49]
56.7 µM: TGI [35]
74.4 µM: TGI [13]
47.7 µM: TGI [10]
72.9 µM: TGI [2]
67.7 µM: TGI [7]

O=C1OC(Cl)C(N=P(c2ccccc2)(c2ccccc2)c2ccccc2)=C1Cl (stereo unspecified)
85.4 µM: TGI [25]
> 100 µM: TGI [1] | TGI [53] | TGI [2] | TGI [4] | TGI [5] | TGI [6] | TGI [7] | TGI [8] | TGI [9] | TGI [10] | TGI [11] | TGI [13] | TGI [14] | TGI [16] | TGI [17] | TGI [18] | TGI [19] | TGI [54] | TGI [20] | TGI [55] | TGI [22] | TGI [23] | TGI [57] | TGI [24] | TGI [26] | TGI [27] | TGI [28] | TGI [29] | TGI [30] | TGI [31] | TGI [32] | TGI [33] | TGI [34] | TGI [35] | TGI [37] | TGI [38] | TGI [39] | TGI [40] | TGI [41] | TGI [42] | TGI [43] | TGI [44] | TGI [45] | TGI [46] | TGI [47] | TGI [48] | TGI [49] | TGI [50] | TGI [52]
